The text below walks through data of patent EP4650362A1, “NEUROPROTECTIVE PSD-95 POLYPEPTIDE INHIBITOR AND USE THEREOF” (Beijing Tuo Jie Biopharmaceutical Co. Ltd., priority 2023, dated 2024).

Values joined by “and” are separate entries in the source; they are usually repeats but may differ in a detail not shown here. Equal values may be shown once. Read-outs that look alike come from different tables or passages of the source. Non-standard residues stand in square brackets, D forms with d. Residues, ends and D or L forms follow the SMILES beside them. No end group written: not given here. Tle = CC(C)(C)[C@H](N)C(=O)O; Dab = NCC[C@H](N)C(=O)O; Aib = CC(C)(N)C(=O)O

The nature of data set [1]: plasma stability test with alteplase added, rat plasma. It is filed as in vitro ADME. The conditions noted are these: Rat plasma + rt-PA (50 µg/mL alteplase), 25 µM. As to the method:
Solution preparation: An appropriate amount of a test polypeptide compound was weighed out and dissolved in an appropriate amount of 1× PBS to form a 1 mM test solution. NA-1 and NoNO42 were used as positive drugs, propantheline bromide was used as a human plasma test control, and lovastatin was used as a rat plasma test control. Plasma stability test: 12.5 µL of the 1 mM test solution was added to a 495 µL pre-incubated plasma sample. […] For each incubation time, two parallel samples were set. Subsequently, 200 µL of stop solution was added to stop the incubation, and the mixtures were vortexed for 5 min. Then the mixtures were centrifuged at 10,000 rpm at 4 °C for 10 min to remove the protein in the sample, and 70 µL of the supernatant was transferred to a new 96-well plate (70 µL of water was added to each well beforehand) and well mixed. Plasma stability test with alteplase added: An appropriate amount of solid alteplase was weighed out, and an appropriate volume of water was added. The mixture was vortexed to dissolve alteplase, forming a 1 mg/mL solution of alteplase. 250 µL of the 1 mg/mL solution of alteplase was added to 4750 µL of plasma to form a plasma sample containing 50 µg/mL alteplase. The other procedures were the same as in the aforementioned "plasma stability test", with the difference being that the plasma sample containing 50 µg/mL alteplase was used instead of plasma. […] Sample pretreatment: […] LC-MS analysis: […] (2) Mass-spectrometric conditions: The mass spectrometry analysis used an electrospray ionization (ESI) source, a positive ion analysis mode, and a multi-reaction monitoring (MRM) scan mode. […] The plasma stability of the polypeptide compound

Another data set addresses T1, human PSD95-PDZ2 (Homo sapiens, UniProt P78352).
T1 construct: PDZ2 (155-249, the Flag-His-Avitag-TEVsite tag is italicized); made in house; host or cells: E. coli BL21-DE3 (PET vector)
In words: competitive ELISA, affinity for human PSD95-PDZ2. The format is binding.

Data set [2] in a line: pharmacokinetic study in rats, single intravenous bolus injection. It is filed as in vivo, SD rats. The conditions noted are these: rats; for Cmax: read-out: Cmax; for half-life: read-out: T1/2 (converted). As to the method:
With male SD rats as test animals, the pharmacokinetic behavior of polypeptide compounds administered via single intravenous bolus injection in rats (plasma) was studied.
Male SD rats weighing 170 to 200 grams and aged 4-6 weeks were purchased from Beijing Vital River Laboratory Animal Technology Co., Ltd. The polypeptide compounds were dissolved in 1× PBS, and the polypeptide compound solutions were then administered via intravenous bolus injection over 10 min at a dose of 3 nmol/g, with three animals per group. At each of the time points of 2 min, 8 min, 15 min, 30 min, 45 min, 60 min, and 120 min after the end of bolus injection, 0.2 mL of blood was collected and transferred to an EDTA-K2 anticoagulation centrifuge tube. The whole blood sample was centrifuged at 4 °C at 4000 g for 5 min, and a plasma sample was obtained by separation and cryopreserved at -80 °C.
The pharmacokinetic parameters of polypeptide compound 22, administered via intravenous bolus injection, in rats were determined using a similar method, with the difference being that an enzyme inhibitor was added immediately after blood collection.
The plasma concentrations of the test compounds were determined using the method in Test Example 3.4.3. Plasma concentration-time curves were plotted, and the pharmacokinetic parameters were calculated using PKSolver software. The experimental results are shown in Table 5-1, Table 5-2, and FIG. 3.

Setting [3] is: competitive ELISA against 0.3 µM Biotin-NA-1, error of this test within three times, read-out: IC50.
Setting [4] is: male, SD, rat, plasma, intravenous bolus injection over 10 min, 3 nmol/g, n = 3.
Setting [5] is: intravenous bolus injection over 10 min, 3 nmol/g, n = 3.
[6] abbreviates: male, SD, rat, in vivo, 3 nmol/g, intravenous bolus injection, enzyme inhibitor added immediately after blood collection, n = 3.
The mark [7] stands for this setting: male, SD, rat, plasma, 3 nmol/g, intravenous bolus injection, enzyme inhibitor added immediately after blood collection, n = 3.
Where [8] appears, read: intravenous bolus injection, enzyme inhibitor added (Table 5-2).
The mark [9] stands for this setting: intravenous bolus injection, enzyme inhibitor added immediately after blood collection, n = 3.

Take `CC(C)[C@H](NC(=O)[C@H](CC(=O)O)NC(=O)[C@@H](NC(=O)[C@@H](NC(=O)[C@@H](NC(=O)[C@@H](NC(=O)[C@H](CCN)NC(=O)C(C)(C)NC(=O)CNC(=O)[C@@H](CCCNC(=N)N)NC(=O)[C@@H](CCCNC(=N)N)NC(=O)[C@@H](CCCNC(=N)N)NC(=O)[C@@H](CCC(N)=O)NC(=O)[C@@H](CCCNC(=N)N)NC(=O)[C@@H](CCCNC(=N)N)NC(=O)[C@@H](CCCCN)NC(=O)[C@@H](CCCCN)NC(=O)[C@@H](CCCNC(=N)N)NC(=O)CNC(=O)[C@H](N)Cc1ccc(O)cc1)[C@@H](C)O)C(C)(C)C)C(C)(C)C)[C@@H](C)O)C(=O)O` [Polypeptide compound 14, y-G-r-k-k-r-r-q-r-r-r-G-Aib-Dab-T-Tle-Tle-T-D-V] (H-[dY]G[dR][dK][dK][dR][dR][dQ][dR][dR][dR]G[Aib][Dab]T[Tle][Tle]TDV-OH): the “Relative remaining compound content (%)” value is given as 100.0% in data set [1] (0min (standard 100%)); 95.6% in data set [1] (10min); 90.4% in data set [1] (20min); 104.9% in data set [1] (30min); 105.4% in data set [1] (60min); 96.7% in data set [1] (120min). In addition, the IC50 at human PSD95-PDZ2 (setting [3]) is 0.713 µM. The same compound gave an area under the curve AUC(0-inf) in data set [2] (setting [4]) of 9900 ng·h/mL. Moreover, the MRT in data set [2] (setting [4]) stood at 71.4 min. Also, the exposure AUC(0-t) in data set [2] (male, SD, rat, plasma, intravenous bolus injection over 10 min, 3 nmol/g, n = 3, read-out: AUC(0-t)) turned out to be 7910 ng·h/mL. In data set [2] (setting [4]), the Cmax came to 15100 ng/mL. Moreover, the half-life in data set [2] (setting [4]) was 56.4 min. Besides, the AUClast/dose in data set [2] (setting [5]) is reported as 1041.
Take `CC(C)[C@H](NC(=O)[C@H](CC(=O)O)NC(=O)[C@@H](NC(=O)[C@@H](NC(=O)[C@@H](NC(=O)[C@@H](NC(=O)[C@H](CCN)NC(=O)C(C)(C)NC(=O)CNC(=O)[C@@H](CCCNC(=N)N)NC(=O)[C@H](CCCNC(=N)N)NC(=O)[C@H](CCCNC(=N)N)NC(=O)[C@H](CCC(N)=O)NC(=O)[C@@H](CCCNC(=N)N)NC(=O)[C@H](CCCNC(=N)N)NC(=O)[C@H](CCCCN)NC(=O)[C@H](CCCCN)NC(=O)[C@H](N)CCCNC(=N)N)[C@@H](C)O)C(C)(C)C)C(C)(C)C)[C@@H](C)O)C(=O)O` [Polypeptide compound 22, r-K-K-R-r-Q-R-R-r-G-Aib-Dab-T-Tle-Tle-T-D-V] (H-[dR]KKR[dR]QRR[dR]G[Aib][Dab]T[Tle][Tle]TDV-OH): the “Relative remaining compound content (%)” value in data set [1] (0min (standard 100%)) stood at 100.0%. Besides, the “Relative remaining compound content (%)” value in data set [1] (10min) came out at 83.4%. In data set [1] (20min), the “Relative remaining compound content (%)” value is listed as 72.2%. Besides, the “Relative remaining compound content (%)” value in data set [1] (30min) worked out at 48.2%. In data set [1] (60min), the “Relative remaining compound content (%)” value was found to be 13.7%. Besides, the “Relative remaining compound content (%)” value in data set [1] (120min) came to 8.1%. At human PSD95-PDZ2 (setting [3]), the IC50 amounted to 0.881 µM. Further, the AUC(0-inf) in data set [2] (setting [6]) was 24300 ng·h/mL. For the same compound, in data set [2] (setting [7]), the MRT is 106 min, the Tmax worked out at 21.6 min, the Cmax was 16900 ng/mL and the half-life was 69.6 min. In data set [2] (setting [8]), the “area under the curve (AUC) increase compared to NA-1” value stood at 19.4 fold, the “half-life increase compared to NA-1” value amounted to 29 fold and the “maximum plasma concentration (Cmax) increase compared to NA-1” value came out at 2.3 fold. In data set [2] (setting [9]), this compound gave an AUClast/dose of 2239.6.
Take “YGRKKRRQRRRKLSSIESDV [NA-1, YGRKKRRQR RRKLSSIESDV, reference compound]”: the “Relative remaining compound content (%)” value in data set [1] (0min (standard 100%)) was 100.0%; in data set [1] (10min), 6.3% and 14.0%; in data set [1] (20min), 2.2%; in data set [1] (30min), 0.8%. This compound also had a half-inhibitory concentration (IC50) at human PSD95-PDZ2 of 0.909 µM. The Tmax in data set [2] (setting [6]) came out at 12 min. Also, the Cmax stood at 3800 ng/mL in data set [2] (male, SD, rat, in vivo, iv, 3 nmol/g, intravenous bolus injection over 10 min, 3 nmol/g, n = 3) and 7250 ng/mL in data set [2] (male, SD, rat, in vivo, iv, 3 nmol/g, intravenous bolus injection, enzyme inhibitor added immediately after blood collection, n = 3). In data set [2] (male, SD, rat, in vivo, intravenous bolus injection over 10 min, 3 nmol/g, n = 3), the half-life was 2.4 min. Further, in data set [2] (setting [5]), the “AUC(0-t)” value worked out at 309 ng·h/mL. Also, the “AUC(inf)” value in data set [2] (setting [5]) came to 315 ng·h/mL; in data set [2] (setting [9]) it was 1248 ng·h/mL. The AUClast/dose in data set [2] (setting [5]) was 41; in data set [2] (setting [9]), 184.0. Besides, the MRTO-inf was 3.6 min in data set [2] (setting [5]) and 13.2 min in data set [2] (setting [9]). In addition, the half-lives result in data set [2] (intravenous bolus injection, 3 nmol/g (Table 5-1)) is on record as “less than 3 min”. In data set [2] (setting [9]), this compound showed a T1/2 of 2.4 min.
